From US4562176A, “Method and composition for treating cancer” (priority 1985, dated 1985)
In brackets after ≈: the same amount, converted by molar mass. Numbered stars: 1 amine (or outer) side, 2 acyl side, 3 side chain; on linkers, the order of the positions; unused ones are H or OH. Bridge positions count the residues as written; N and C are the ends. Square brackets hold non-standard residues; d marks the D form. Peptide text beside a SMILES is read from it. I, II: the chains in the order shown. Actinocin(9to1) = Cc1c2oc3c(C)ccc(C(=O)[*:1])c3nc-2c(C(=O)[*:2])c(N)c1=O; NMeV = CN[C@H](C(=O)O)C(C)C; Sar = CNCC(=O)O

Legend:
[1] = system: P388 lymphocytic leukemia; experiment: In vivo P388 assay; design: species or system mice; conditions: ip days 1,5,9; for % ILS (percent increase in life span) / MST (median survival time) / Cure (over 60 day survivors): at optimum dose; for % ILS (percent increase in life span) / MST (median survival time): CDF1 male mice; for MST (median survival time): control MST 11.0 days; for Cure (over 60 day survivors): group of 7 CDF1 male mice, average of 2 experiments
Method: ^c 10^6 P388 cells implanted intraperitoneally on day 0 into a
group of 7 CDF1 male mice. Drugs were administered, also ip, in 10%
Me2 SO--saline on days 1,5,9. Test solutions were kept at 0-4.degree
C., protected from light.
These analogues were tested for antitumor activity against P388 lymphocytic leukemia in male CDF1 hybrid mice (Table 6). The tumor was implanted intraperitoneally (ip) with 10^6 cells. The drugs were administered once daily on days 1, 5, 9 beginning 1 day after implantation.

[2] = Solubility in distilled water
Method: SOLUBILITY OF ACTINOMYCIN D AND ANALOGUES 2b, 3b AND 4b IN DISTILLED WATER AT 20° C. AND 4° C.

[3] = system: purified calfthymus DNA; experiment: Thermal denaturation of DNA (ΔTm); format: binding, calf; conditions: 0.01 M phosphate, EDTA, buffer pH 7.0
Method: ^a ΔTm = Tm of DNAdrug complex minut Tm of
purified calfthymus DNA.
(§1) Medium: 0.01 M phosphate containing 10^-4 EDTA, buffer pH 7.0.
Melting points were determined on a Thomas-Hoover melting point apparatus at a heating rate of 2° C./min. Dry column chromatography was accomplished with silicic acid powder (Bio-Sil A 100-200 mesh, Bio-Rad Laboratories, Inc.) or acid alumina (Woelm grade 1). Thin layer chromatography was performed on silica gel plates (Brinkmann Instrument, Inc.). For oxazinone analogues (2b), the silica gel plates were exposed to the vapor of conc. HCL in an air-tight container for 20 min before application of the compound for TLC. This procedure helped to prevent the streaking of the compounds in the chromatogram. Solvent systems were (A) EtOAc-acetone (2:1); (B) dry t-BuOH-C6 H6 --C6 H5 N (85:12.5:2.5); (C) Cifferri, the organic phase of the mixture EtOAc-MeOH-H2 O (20:L:20). High performance-liquid chromatography was carried out on a Varian Model 5020 gradient liquid chromatograph equipped with CD-111L chromatography data system and fitted with Varian reversed-phase C18 column with isocratic solvent systems, CH3 CN-5 mM NH4 OAc buffer, pH 6.4 (68:32), flow rate 15 mL/mn, with UV-visible variable and fixed wavelength dual detectors at 254,440, 500 and 252 nm. Spectra were determined on the following instruments: IR spectra were obtained on the Perkin-Elmer Model 237 Infra Cord with KBr micropellets or in CHCl3 solutions; UV-visible spectra were obtained on a Gilford 250 spectrophotometer, which, with the addition of a baseline reference compensator (Analog Multiplexer 5053) and thermoprogrammer, auto four cell programmer and thermoelectric cell holder 2577, were used to obtain thermal denaturation curves; specific rotational values were determined in CHCl3 solutions using a Cary 60 spectropolarimeter; NMR spectra were obtained in a JOEL FQ -90 MHz spectrometer equipped with Fourier transform. All elemental analyses were within +0.4%, unless it is specified otherwise.
DNA-DRUG BINDING BY DIFFERENCE SPECTRAL AND THERMAL DEVATURATION OF DNA (ΔTm) TECHNIQUES […]

[4] = system: DNA; experiment: DNA-drug binding by difference spectral (absorption and CD) techniques; conditions: for Diff. CD Spectra -Δ[θ]max (nm): DNA-bound vs combined individual spectra; for Diff. CD Spectra -Δ[θ]max (nm) / Diff. Absorption Spectra -Δεmax (nm): 340-600 nm, wavelength in brackets, phosphate buffer pH 7.0; for Diff. Absorption Spectra -Δεmax (nm): free minus DNA-bound spectrum
Description: ^b Diff. Absorption Spectra is the calculated absorption spectra
obtained by subtracting the spectrum of the DNAbound analogue from the
spectrum of the free analogue, measured at 340-600 nm.
^c Diff. CD Spectra is the calculated CD Spectra obtained as the
difference of the DNAbound from the combined individual spectra of
analogues and DNA at 340-600 nm.
as §1
DNA-DRUG BINDING BY DIFFERENCE SPECTRAL AND THERMAL DEVATURATION OF DNA (ΔTm) TECHNIQUES
These experiments were performed according to the methods described by Sengupta et al., Cancer Chemother. Rep., 1974, 58, p. 35, Sengupta et al, J. Med. Chem., 1981, 24, p. 1052 and Sengupta et al, 1983, 26, p. 448, Sengupta et al, 1978, Biochem. Biophys Acta, 521, p. 89.

[5] = system: human lymphoblastic leukemia cells (CCRF-CEM); experiment: In vitro growth inhibition of CCRF-CEM cells; format: cell-based; conditions: for In Vitro (CCRF-CEM) ID50: cells in log-phase growth, suspension culture, final growth medium 5% Me2SO
Method: ^b Human lymphoblastic luekemia cells in logphase growth and in a
suspension culture. Compounds were dissolved in Me2 SO medium, final
growth medium contained 5% Me2 SO.
In vitro growth inhibition of the analogues were assayed against human lymphoblastic leukemia cells (CCRF-CEM) in log phase. The most cyctoxic are AMD-OZN analogues 2b and 2g and AMD-OZL analogues 4a-4c. However, compared to AMD, they are several fold less cytotoxic to CEM-cells in vitro.

[6] = system: mouse leukemia cells; conditions: known before this invention; cited from earlier work

SMILES	% ILS (percent increase in life span) [1]	MST (median survival time) [1]	Cure (over 60 day survivors) [1]	solubility in distilled water ([2]; 4° C.)	solubility in distilled water ([2]; 20° C.)	ΔTm (Tm of DNA-drug complex minus Tm of DNA) [3]	Diff. CD Spectra -Δ[θ]max (nm) [4]	DNA binding (in words) ([4]; difference spectral or ΔTm techniques)	Diff. Absorption Spectra -Δεmax (nm) [4]	In Vitro (CCRF-CEM) ID50 [5]	antitumor activity against P388 (in words) ([1]; CDF1 mice)	activity against mouse leukemia cells [6]	cytotoxicity to CEM cells (in words) ([5]; CCRF-CEM in log phase)	activity against human cancer cells (in words) ([5]; human cancer cells)
Cc1c2oc3c(C)ccc(C(=O)N[C@@H]4C(=O)N[C@H](C(C)C)C(=O)N5CCC[C@H]5C(=O)N(C)CC(=O)N(C)[C@@H](C(C)C)C(=O)O[C@@H]4C)c3nc-2c(C(=O)N[C@@H]2C(=O)N[C@H](C(C)C)C(=O)N3CCC[C@H]3C(=O)N(C)CC(=O)N(C)[C@@H](C(C)C)C(=O)O[C@@H]2C)c(N)c1=O [Compound 1a, Actinomycin D, reference compound] (I: T[dV]P[Sar][NMeV] / II: T[dV]P[Sar][NMeV]; ester I:1-I:C, II:1-II:C; linker I:N-II:N via Actinocin(9to1))	136%	26 days	1/7	20.5 mg/mL (≈ 16.3 mM)	0.9 mg/mL (≈ 0.717 mM)	7.1 ± 0.15 °C	40,000(390)	binds to DNA strongly by intercalation	8,240(425)	0.04 µg/mL	–	–	–	–
Cc1c2oc3c(C)c(O)cc(C(=O)N[C@@H]4C(=O)N[C@H](C(C)C)C(=O)N5CCC[C@H]5C(=O)N(C)CC(=O)N(C)[C@@H](C(C)C)C(=O)O[C@@H]4C)c3nc-2c(C(=O)N[C@@H]2C(=O)N[C@H](C(C)C)C(=O)N3CCC[C@H]3C(=O)N(C)CC(=O)N(C)[C@@H](C(C)C)C(=O)O[C@@H]2C)c(N)c1=O [Compound 1b, 7-HYDROXY ACTINOMYCIN D]	–	–	–	–	–	6.7 ± 0.15 °C	31,000(485)	–	9,380(550)	–	–	–	–	–
Cc1ccc(C(=O)N[C@@H]2C(=O)N[C@H](C(C)C)C(=O)N3CCC[C@H]3C(=O)N(C)CC(=O)N(C)[C@@H](C(C)C)C(=O)O[C@@H]2C)c2c1Oc1c(c(C(=O)N[C@@H]3C(=O)N[C@H](C(C)C)C(=O)N4CCC[C@H]4C(=O)N(C)CC(=O)N(C)[C@@H](C(C)C)C(=O)O[C@@H]3C)c3nc(-c4ccccc4)c(=O)oc3c1C)N2 [Compound 2b]	309%	45 days	2/7	–	–	–	–	–	–	0.44 µg/mL	most active	active	most cyctoxic	highest human antitumor effects
Cc1nc2c(C(=O)N[C@@H]3C(=O)N[C@H](C(C)C)C(=O)N4CCC[C@H]4C(=O)N(C)CC(=O)N(C)[C@@H](C(C)C)C(=O)O[C@@H]3C)c3c(c(C)c2o1)Oc1c(C)ccc(C(=O)N[C@@H]2C(=O)N[C@H](C(C)C)C(=O)N4CCC[C@H]4C(=O)N(C)CC(=O)N(C)[C@@H](C(C)C)C(=O)O[C@@H]2C)c1N3 [Compound 3a]	91%	21 days	0/7	–	–	0.0 ± 0.30 °C	nil	–	nil	2.9 µg/mL	–	–	–	–
